For 33 compounds, Emax and EC50 results are on record in patent US20250074901A1, “NOVEL HETEROARYL COMPOUNDS” (ICAGEN, LLC, priority 2021, published 2025).

The assay addresses T1, Kv7.2 (Homo sapiens, UniProt O43526).
T1 construct: expressed in transfected cells
The assay is described as follows: Activation of Kv7.2 (in vitro assay, concentration response curve). The class given is cell-based. To be noted: for Emax: Kv7.2 activation max %; for EC50: activation of Kv7.2. A digest of the protocol: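 EC50 is the half-maximal effective concentration, relative to the Emax observed for each compound in this in vitro assay. It was derived from concentration–response curves of the agonistic effect measured over a series of concentrations.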

As usually defined, the Emax is the greatest response seen or fitted, relative to the assay's reference. One may read the EC50 as the concentration at which the effect is half-maximal. Higher therefore signals a need for much substance. Regarding `O=C(NCc1ccnc(OCF)c1)Nc1cccc(Cl)c1` [Example 164, 1-(3-chlorophenyl)-3-[[2-(fluoromethoxy)pyridin-4-yl]methyl]urea], the Emax came out at 78% and it took 1720 nM to reach a half-maximal effect (EC50).
For `O=C(NCc1ccnc(OC(F)F)c1)NC1COC(C2CC2)C1` (stereo not drawn) [Example 166, 1-(5-cyclopropyloxolan-3-yl)-3-[[2-(difluoromethoxy)pyridin-4-yl]methyl]urea], in that order: 66% and 3330 nM.
On the same counts, the results for `O=C(NCc1ccnc(OCC(F)(F)F)c1)NC12CC(F)(C1)C2` [Example 168, 1-(3-fluoro-1-bicyclo[1.1.1]pentanyl)-3-[[2-(2,2,2-trifluoroethoxy)pyridin-4-yl]methyl]urea] are 59% and 210 nM.
`O=C(NCc1ccnc(OC(F)F)c1)N[C@@H]1C[C@@H]2[C@H](C1)C2(F)F` [Example 169, 1-[[2-(difluoromethoxy)pyridin-4-yl]methyl]-3-[(1R,3s,5S)-6,6-difluoro-3-bicyclo[3.1.0]hexanyl]urea] registered an Emax of 69% and an EC50 of 340 nM.
For `O=C(NCc1ccnc(OC(F)F)c1)N[C@@H]1[C@H]2CCC(F)(F)[C@H]21` [Example 170, 1-[(1R,5S,6R)-2,2-difluoro-6-bicyclo[3.1.0]hexanyl]-3-[[2-(difluoromethoxy)pyridin-4-yl]methyl]urea], in that order: 59% and 80 nM.
For `O=C(NCc1ccnc(OC(F)F)c1)NC1(C2CC(F)(F)C2)CC1` [Example 171, 1-[1-(3,3-difluorocyclobutyl)cyclopropyl]-3-[[2-(difluoromethoxy)pyridin-4-yl]methyl]urea], in that order: 48% and 360 nM.
For `O=C(NCc1ccnc(OC(F)F)c1)NC1CC1(F)F` (stereo not drawn) [Example 173, 1-(2,2-difluorocyclopropyl)-3-[[2-(difluoromethoxy)pyridin-4-yl]methyl]urea], in that order: 57% and 4400 nM.
`O=C(NCc1ccnc(OC(F)F)c1)N[C@H]1[C@@H]2CCC(F)(F)[C@@H]21` [Example 174, 1-[(1S,5R,6S)-2,2-difluoro-6-bicyclo[3.1.0]hexanyl]-3-[[2-(difluoromethoxy)pyridin-4-yl]methyl]urea] displayed an Emax of 51% and a 50% effective concentration (EC50) of 200 nM.
In turn, `O=C(NCc1ccnc(OC(F)F)c1)NC1(C(F)(F)F)CC1` [Example 175, 1-[[2-(difluoromethoxy)pyridin-4-yl]methyl]-3-[I-(trifluoromethyl)cyclopropyl]urea] yielded an Emax of 50% and an EC50 of 8300 nM.
Take `O=C(NCc1ccnc(OC(F)F)c1)NC1(C23CC(F)(C2)C3)CC1` [Example 177, 1-[[2-(difluoromethoxy)pyridin-4-yl]methyl]-3-[1-(3-fluoro-1-bicyclo[1.1.1]pentanyl)cyclopropyl]urea]: the Emax turned out to be 43% and the EC50 came out at 1400 nM.
In turn, `O=C(NCc1ccnc(OC(F)F)c1)NC12CC(C(F)(F)F)(C1)C2` [Example 178, 1-[[2-(difluoromethoxy)pyridin-4-yl]methyl]-3-[3-(trifluoromethyl)-1-bicyclo[1.1.1]pentanyl]urea] came in with an Emax of 62% and an EC50 of 1860 nM.
On the same counts, the results for `O=C(NCc1ccnc(OCC(F)(F)F)c1)N[C@H]1C[C@H](C(F)(F)F)C1` [Example 179, 1-[[2-(2,2,2-trifluoroethoxy)pyridin-4-yl]methyl]-3-[(1r,3r)-3-(trifluoromethyl)cyclobutyl]urea] are 48% and 20 nM.
Compound `O=C(NCc1ccnc(OCC(F)(F)F)c1)NC12CCC(F)(CC1)CC2` [Example 180, 1-(4-fluoro-1-bicyclo[2.2.2]octanyl)-3-[[2-(2,2,2-trifluoroethoxy)pyridin-4-yl]methyl]urea] had a maximal response (Emax) of 72% and an EC50 of 310 nM.
For `O=C(NCc1ccnc(OC(F)F)c1)NCC1CC(F)(F)C1` [Example 181, 1-[(3,3-difluorocyclobutyl)methyl]-3-[[2-(difluoromethoxy)pyridin-4-yl]methyl]urea], in that order: 41% and 660 nM.
For the compound `CC12CC(NC(=O)NCc3ccnc(OC(F)F)c3)(C1)C2` [Example 182, 1-[[2-(difluoromethoxy)pyridin-4-yl]methyl]-3-(3-methyl-1-bicyclo[1.1.1]pentanyl)urea], the Emax was found to be 63% and the EC50 amounted to 90 nM.
For `CC(F)COc1cc(CNC(=O)N[C@H]2C[C@H](C(F)(F)F)C2)ccn1` (stereo partly drawn) [Example 183, 1-[[2-(2-fluoropropoxy)pyridin-4-yl]methyl]-3-[(1r,3r)-3-(trifluoromethyl)cyclobutyl]urea], in that order: 58% and 260 nM.
On the same counts, the results for `C[C@]1(O)CCC[C@@H]1NC(=O)NCc1ccnc(OC(F)F)c1` [Example 184, 1-[[2-(difluoromethoxy)pyridin-4-yl]methyl]-3-[(1S,2S)-2-hydroxy-2-methylcyclopentyl]urea] are 55% and 1810 nM.
On the same counts, the results for `O=C(NC(CO)c1ccnc(OCC(F)(F)F)c1)N[C@H]1C[C@H](C(F)(F)F)C1` (stereo partly drawn) [Example 185, 1-[2-hydroxy-1-[2-(2,2,2-trifluoroethoxy)pyridin-4-yl]ethyl]-3-[(1r,3r)-3-(trifluoromethyl)cyclobutyl]urea] are 84% and 380 nM.
`O=C(NCc1ccnc(OC(F)F)c1)Nc1ccc(F)c(F)c1` [Example 186, 1-[[2-(difluoromethoxy)pyridin-4-yl]methyl]-3-(3,4-difluorophenyl)urea] had an Emax of 62% and an EC50 of 550 nM.
In turn, `CC1(C)CC(NC(=O)NCc2ccnc(OC(F)F)c2)C1` [Example 188, 1-[[2-(difluoromethoxy)pyridin-4-yl]methyl]-3-(3,3-dimethylcyclobutyl)urea] displayed a maximal effect (Emax) of 82% and an EC50 of 50 nM.
`O=C(NCc1ccnc(OC(F)F)c1)N[C@H]1C[C@@H]2[C@H](C1)C2(F)F` [Example 189, 1-[[2-(difluoromethoxy)pyridin-4-yl]methyl]-3-[(1R,3r,5S)-6,6-difluoro-3-bicyclo[3.1.0]hexanyl]urea] showed an Emax of 74% and an EC50 of 130 nM.
On the same counts, the results for `O=C(NCc1ccnc(OC(F)F)c1)N[C@@H]1C[C@H]2CCC[C@H]2C1` [Example 190, 1-[[2-(difluoromethoxy)pyridin-4-yl]methyl]-3-[(2s,3aR,6aS)-1,2,3,3a,4,5,6,6a-octahydropentalen-2-yl]urea] are 85% and 30 nM.
The compound `O=C(NCc1ccnc(OC(F)F)c1)NCC1(C(F)F)CCC1` [Example 191, 1-[[2-(difluoromethoxy)pyridin-4-yl]methyl]-3-[[1-(difluoromethyl)cyclobutyl]methyl]urea] gave an Emax of 68% and an EC50 of 450 nM.
For the compound `O=C(NCc1ccnc(OC(F)F)c1)NC1COc2ccccc2C1` (stereo not drawn) [Example 192, 1-[[2-(difluoromethoxy)pyridin-4-yl]methyl]-3-(3,4-dihydro-2H-chromen-3-yl)urea], the Emax is 51% and it took 240 nM to reach a half-maximal effect (EC50).
For `C[C@]1(NC(=O)NCc2ccnc(OC(F)F)c2)C[C@@H](C(F)(F)F)C1` [Example 194, 1-[[2-(difluoromethoxy)pyridin-4-yl]methyl]-3-[(1r,3r)-1-methyl-3-(trifluoromethyl)cyclobutyl]urea], in that order: 40% and 1540 nM.
For `O=C(NCc1ccnc(OC(F)F)c1)N[C@H]1C[C@@H]2CC(F)(F)C[C@@H]2C1` [Example 195, 1-[[2-(difluoromethoxy)pyridin-4-yl]methyl]-3-[(2r,3aR,6aS)-5,5-difluoro-2,3,3a,4,6,6a-hexahydro-1H-pentalen-2-yl]urea], in that order: 51% and 290 nM.
For the compound `O=C(NCc1ccnc(OC(F)F)c1)N[C@H]1C[C@@H](C(F)(F)F)C1` [Example 198, 1-[[2-(difluoromethoxy)pyridin-4-yl]methyl]-3-[(1s,3s)-3-(trifluoromethyl)cyclobutyl]urea], the Emax was found to be 65% and the EC50 came out at 400 nM.
On the same counts, the results for `C[C@@H](F)COc1cc(CNC(=O)N[C@H]2C[C@H](C(F)(F)F)C2)ccn1` [Example 199, 1-[[2-[(2R)-2-fluoropropoxy]pyridin-4-yl]methyl]-3-[(1r,3r)-3-(trifluoromethyl)cyclobutyl]urea] are 52% and 290 nM.
On the same counts, the results for `CC(F)(F)c1cc(CNC(=O)NC23CC(F)(C2)C3)ccn1` [Example 200, 1-[[2-(1,1-difluoroethyl)pyridin-4-yl]methyl]-3-(3-fluoro-1-bicyclo[1.1.1]pentanyl)urea] are 54% and 4930 nM.
For `CC(F)(F)COc1cc(CNC(=O)NC23CC(F)(C2)C3)ccn1` [Example 201, 1-[[2-(2,2-difluoropropoxy)pyridin-4-yl]methyl]-3-(3-fluoro-1-bicyclo[1.1.1]pentanyl)urea], the Emax was 60% and a half-maximal effect (EC50) was put at 210 nM.
On to `C[C@H](F)COc1cc(CNC(=O)N[C@H]2C[C@H](C(F)(F)F)C2)ccn1` [Example 202, 1-[[2-[(2S)-2-fluoropropoxy]pyridin-4-yl]methyl]-3-[(1r,3r)-3-(trifluoromethyl)cyclobutyl]urea], for which the Emax came to 57% and it took 260 nM to reach a half-maximal effect (EC50).
On the same counts, the results for `O=C(NCc1ccnc(OCC(F)(F)F)n1)Nc1cccc(Cl)c1` [Example 203, 1-(3-chlorophenyl)-3-[[2-(2,2,2-trifluoroethoxy)pyrimidin-4-yl]methyl]urea] are 42% and 210 nM.
On the same counts, the results for `O=C(NCc1ccnc(OCC(F)(F)F)n1)N[C@H]1C[C@H](C(F)(F)F)C1` [Example 204, 1-[[2-(2,2,2-trifluoroethoxy)pyrimidin-4-yl]methyl]-3-[(1r,3r)-3-(trifluoromethyl)cyclobutyl]urea] are 45% and 340 nM.
